In patent publication US6914045B2, “Glycopeptide antibiotics” (Wyeth Holdings Corporation, priority 2001, dated 2005):
≈ marks a conversion by molar mass, not a printed value.

Experiments:
[1] = anatomic pathology (histopathology of heart and kidney) in mice; type: in vivo; details: CD-1 mice, 20 mg/kg intravenously daily for 9 days, necropsy day 10, microscopic histopathology
Method: Samples of tissues from necropsied mice were formalin-fixed, paraffin-embedded, sectioned, stained with hematoxylin and eosin, and examined microscopically. Histopathologic findings were recorded. These findings were subjectively graded on a scale corresponding to slight, mild, moderate, marked and severe as compared to untreated controls.

Enterococcus sp. = assay: in vitro antibacterial evaluation, MIC by broth dilution; type: cell-based; details: broth dilution, 18 hours at 35° C.
Summary of the method: (§1)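 Broth dilution per NCCLS standard M7-A2 in Muller-Hinton II […], with an inoculum of 5×10^5 CFU/mL and antibiotic spanning 64-0.06 μg/mL. The MIC is the lowest concentration that inhibits growth of the organism.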

Streptococcus sp. = assay: as above; type: cell-based; details: broth dilution, 18 hours at 35° C.
Summary of the method: as §1

Staphylococcus sp. = assay: as above; type: cell-based; details: broth dilution, 18 hours at 35° C.; for MIC Staphylococcus aureus (GC 1131): strain GC 1131
Summary of the method: as §1

Escherichia coli = assay: as above; type: cell-based
Summary of the method: as §1

[2] = clinical pathology (serum clinical chemistry) in mice; type: in vivo; details: CD-1 mice, 20 mg/kg intravenously daily for 9 days, sera day 10
Method: 20-day-old CD-1 mice were divided into a vehicle control group (5 mice) and a treatment group (5 mice). Samples of glycopeptide antibiotics were administered at 20 mg/kg intravenously daily for 9 days.

Compound: CC(c1ccccc1)C1NC(=O)CNC(=O)C(CO)NC(=O)C(C(O)C2CNC(=N)N2C2OC(CO)C(O)C(O)C2O)NC(=O)C(C(O)C2CNC(=N)N2)NC(=O)C(Cc2ccc(OC3OC(CO)C(OC4OC5COC(c6ccc(C(=O)O)cc6)OC5C(O)C4O)C(O)C3O)cc2)NC1=O (stereo not drawn) [Example 141, Cyclo[glycyl-β-methylphenylalanyl-O-[4-O-[4,6-O-(4-carboxybenzylidene)hexopyranosyl]-hexopyranosyl]tyrosyl-3-(2-iminoimidazolidin-4-yl)seryl-3-(3-hexopyranosyl-2-iminoimidazolidin-4-yl)serylseryl]]
- Anatomical Pathology (Day 10), Heart [1]: 0
- Anatomical Pathology (Day 10), Kidney [1]: +++
- MIC Enterococcus avium (GC 4558) (Enterococcus sp.; Enterococcus avium (GC 4558)): >64 µg/mL
- MIC Enterococcus faecalis (ATCC 29212) (Enterococcus sp.; Enterococcus faecalis (ATCC 29212)): >64 µg/mL
- MIC Enterococcus faecalis (GC 2242) (Enterococcus sp.; Enterococcus faecalis (GC 2242)): >64 µg/mL
- MIC Enterococcus faecalis (GC 2691) (Enterococcus sp.; Enterococcus faecalis (GC 2691)): >64 µg/mL
- MIC Enterococcus faecalis (GC 3059) (Enterococcus sp.; Enterococcus faecalis (GC 3059)): >64 µg/mL
- MIC Enterococcus faecalis (GC 4552) (Enterococcus sp.; Enterococcus faecalis (GC 4552)): >64 µg/mL
- MIC Enterococcus faecalis (GC 4553) (Enterococcus sp.; Enterococcus faecalis (GC 4553)): >64 µg/mL
- MIC Enterococcus faecalis (GC 4554) (Enterococcus sp.; Enterococcus faecalis (GC 4554)): >64 µg/mL
- MIC Enterococcus faecalis (GC 6189) (Enterococcus sp.; Enterococcus faecalis (GC 6189)): >64 µg/mL
- MIC Enterococcus faecium (GC 2243) (Enterococcus sp.; Enterococcus faecium (GC 2243)): >64 µg/mL
- MIC Enterococcus faecium (GC 4556) (Enterococcus sp.; Enterococcus faecium (GC 4556)): >64 µg/mL
- MIC Enterococcus faecium (GC 4557) (Enterococcus sp.; Enterococcus faecium (GC 4557)): 64 µg/mL (≈ 44.8 µM)
- MIC Enterococcus faecalis (ATCC 29212) (Enterococcus sp.; strain ATCC 29212): >64 µg/mL
- MIC Enterococcus faecalis (GC 2242) (Enterococcus sp.; strain GC 2242): >64 µg/mL
- MIC Enterococcus faecium (GC 2243) (Enterococcus sp.; strain GC 2243): >64 µg/mL
- MIC Enterococcus faecalis (GC 2691) (Enterococcus sp.; strain GC 2691): >64 µg/mL
- MIC Enterococcus faecalis (GC 3059) (Enterococcus sp.; strain GC 3059): >64 µg/mL
- MIC Enterococcus faecalis (GC 4552) (Enterococcus sp.; strain GC 4552): >64 µg/mL
- MIC Enterococcus faecalis (GC 4553) (Enterococcus sp.; strain GC 4553): >64 µg/mL
- MIC Enterococcus faecalis (GC 4554) (Enterococcus sp.; strain GC 4554): >64 µg/mL
- MIC Enterococcus faecium (GC 4556) (Enterococcus sp.; strain GC 4556): >64 µg/mL
- MIC Enterococcus faecium (GC 4557) (Enterococcus sp.; strain GC 4557): 64 µg/mL (≈ 44.8 µM)
- MIC Enterococcus avium (GC 4558) (Enterococcus sp.; strain GC 4558): >64 µg/mL
- MIC Enterococcus faecalis (GC 6189) (Enterococcus sp.; strain GC 6189): >64 µg/mL
- MIC Streptococcus agalactiae (GC 4564) (Streptococcus sp.; Streptococcus agalactiae (GC 4564)): >64 µg/mL
- MIC Streptococcus pneumoniae (ATCC 6301) (Streptococcus sp.; Streptococcus pneumoniae (ATCC 6301)): >64 µg/mL
- MIC Streptococcus pneumoniae (GC 1894) (Streptococcus sp.; Streptococcus pneumoniae (GC 1894)): >64 µg/mL
- MIC Streptococcus pneumoniae (GC 4565) (Streptococcus sp.; Streptococcus pneumoniae (GC 4565)): >64 µg/mL
- MIC Streptococcus pyogenes (GC 4563) (Streptococcus sp.; Streptococcus pyogenes (GC 4563)): >64 µg/mL
- MIC Streptococcus pneumoniae (ATCC 6301) (Streptococcus sp.; strain ATCC 6301): >64 µg/mL
- MIC Streptococcus pneumoniae (GC 1894) (Streptococcus sp.; strain GC 1894): >64 µg/mL
- MIC Streptococcus pyogenes (GC 4563) (Streptococcus sp.; strain GC 4563): >64 µg/mL
- MIC Streptococcus agalactiae (GC 4564) (Streptococcus sp.; strain GC 4564): >64 µg/mL
- MIC Streptococcus pneumoniae (GC 4565) (Streptococcus sp.; strain GC 4565): >64 µg/mL
- MIC Staphylococcus aureus (GC 1131) (Staphylococcus sp.; inoculum 5×10^5 CFU/mL): >64 µg/mL
- MIC Staphylococcus aureus (ATCC 29213) (Staphylococcus sp.; strain ATCC 29213): >64 µg/mL
- MIC Staphylococcus aureus (GC 1131) (Staphylococcus sp.): >64 µg/mL
- MIC Staphylococcus aureus (GC 3051) (Staphylococcus sp.; strain GC 3051): >64 µg/mL
- MIC Staphylococcus aureus (GC 3053) (Staphylococcus sp.; strain GC 3053): >64 µg/mL
- MIC Staphylococcus aureus (GC 4541) (Staphylococcus sp.; strain GC 4541): >64 µg/mL
- MIC Staphylococcus aureus (GC 4542) (Staphylococcus sp.; strain GC 4542): >64 µg/mL
- MIC Staphylococcus aureus-SMITH (GC 4543) (Staphylococcus sp.; strain GC 4543): >64 µg/mL
- MIC Staphylococcus aureus (GC 4544) (Staphylococcus sp.; strain GC 4544): >64 µg/mL
- MIC Staphylococcus aureus (GC 4545) (Staphylococcus sp.; strain GC 4545): >64 µg/mL
- MIC Staphylococcus haemolyticus (GC 4546) (Staphylococcus sp.; strain GC 4546): >64 µg/mL
- MIC Coagulase Negative Staphylococcus (GC 4547) (Staphylococcus sp.; strain GC 4547): >64 µg/mL
- MIC Coagulase Negative Staphylococcus (GC 4548) (Staphylococcus sp.; strain GC 4548): >64 µg/mL
- MIC Coagulase Negative Staphylococcus (GC 4549) (Staphylococcus sp.; strain GC 4549): >64 µg/mL
- MIC Coagulase Negative Staphylococcus (GC 4551) (Staphylococcus sp.; strain GC 4551): >64 µg/mL
- MIC Coagulase Negative Staphylococcus (GC 6257) (Staphylococcus sp.; strain GC 6257): >64 µg/mL
- MIC Staphylococcus aureus-SMITH (GC 4543) (Staphylococcus sp.; strain SMITH GC 4543): >64 µg/mL
- MIC Escherichia coli (ATCC 25922) (Escherichia coli; strain ATCC 25922, 18 hours at 35° C.): >64 µg/mL
- MIC Escherichia coli (GC 4559) (Escherichia coli; strain GC 4559, 18 hours at 35° C.): >64 µg/mL
- MIC Escherichia coli (GC 4560) (Escherichia coli; strain GC 4560, 18 hours at 35° C.): >64 µg/mL
- Clinical Chemistry (Day 10) % of Control, BUN [2]: +308%
- Clinical Chemistry (Day 10) % of Control, Creatinine [2]: +113%
